This note sets out measurements from ChEMBL document CHEMBL1157492, “Discovery of potent and cell-active allosteric dual Akt 1 and 2 inhibitors” (Bioorg Med Chem Lett, 2008).

For experiment [1], the target named is T1, RAC-beta serine/threonine-protein kinase (Homo sapiens, UniProt P31751). In words: Inhibition of Akt2 phosphorylation in human by C33a cells by IPKA assay. The format is cell-based.
For experiment [2], the target named is T2, RAC-alpha serine/threonine-protein kinase (Homo sapiens, UniProt P31749). In words: Inhibition of Akt1 phosphorylation in human by C33a cells by IPKA assay. The format is cell-based.
T2 sequence (P31749 whole entry): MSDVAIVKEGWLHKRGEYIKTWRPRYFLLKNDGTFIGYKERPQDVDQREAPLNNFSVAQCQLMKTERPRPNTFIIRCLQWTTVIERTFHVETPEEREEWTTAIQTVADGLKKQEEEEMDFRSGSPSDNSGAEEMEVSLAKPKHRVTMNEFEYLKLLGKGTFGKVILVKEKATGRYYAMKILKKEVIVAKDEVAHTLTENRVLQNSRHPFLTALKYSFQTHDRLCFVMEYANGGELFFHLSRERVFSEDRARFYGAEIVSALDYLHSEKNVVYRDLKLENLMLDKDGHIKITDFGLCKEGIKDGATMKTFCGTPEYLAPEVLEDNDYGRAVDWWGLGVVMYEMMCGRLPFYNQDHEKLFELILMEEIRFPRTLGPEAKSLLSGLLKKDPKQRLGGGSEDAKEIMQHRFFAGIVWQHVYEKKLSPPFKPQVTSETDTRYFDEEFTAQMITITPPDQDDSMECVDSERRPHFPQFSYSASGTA
The target in experiment [3] is T2, RAC-alpha serine/threonine-protein kinase. In words: Inhibition of Akt1 phosphorylation by HTRF assay. On the technique in general: TR-FRET usually uses a lanthanide donor and a delayed reading to cut background.
Experiment [4] deals with T1, RAC-beta serine/threonine-protein kinase. In words: Inhibition of Akt2 phosphorylation by HTRF assay.

Activity calls are given as the source filed them. The calls are words filed in the database; no cut-off is given here.

T1 sequence (P31751 whole entry): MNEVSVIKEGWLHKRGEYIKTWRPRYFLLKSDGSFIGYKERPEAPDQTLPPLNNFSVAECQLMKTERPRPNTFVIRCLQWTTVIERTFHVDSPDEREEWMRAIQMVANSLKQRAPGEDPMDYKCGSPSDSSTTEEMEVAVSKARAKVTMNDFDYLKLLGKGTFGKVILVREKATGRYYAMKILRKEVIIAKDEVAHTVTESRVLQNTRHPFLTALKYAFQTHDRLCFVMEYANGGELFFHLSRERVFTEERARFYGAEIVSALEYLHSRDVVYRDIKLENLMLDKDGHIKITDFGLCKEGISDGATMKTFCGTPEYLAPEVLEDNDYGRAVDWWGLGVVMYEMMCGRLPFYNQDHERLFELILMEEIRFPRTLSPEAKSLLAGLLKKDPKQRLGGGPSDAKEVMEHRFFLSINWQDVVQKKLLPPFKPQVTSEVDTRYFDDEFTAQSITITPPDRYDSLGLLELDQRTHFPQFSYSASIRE

Turning to `OC1CCN(c2ncc3cc(-c4ccccc4)c(-c4ccc(CN5CCC(c6nnc(-c7ccccn7)[nH]6)CC5)cc4)nc3n2)CC1`, the IC50 in experiment [1] came out at 0.168 µM; in experiment [2], 0.017 µM; in experiment [3], 0.007 µM; in experiment [4], 0.045 µM.
On to `CN1CCN(c2nccc3nc(-c4ccc(CN5CCC(c6nnc(-c7ccccn7)[nH]6)CC5)cc4)c(-c4ccccc4)cc23)CC1`, for which the result in experiment [1] and in experiment [2] was inactive. Moreover, the IC50 in experiment [3] worked out at 0.285 µM; in experiment [4], 0.539 µM.
As for `CN(C)CCNc1ncc2cc(-c3ccccc3)c(-c3ccc(CN4CCC(c5nnc(-c6ccccn6)[nH]5)CC4)cc3)nc2n1`, the 50% inhibitory concentration (IC50) was 0.223 µM in experiment [1], 0.208 µM in experiment [2], 0.079 µM in experiment [3] and 0.154 µM in experiment [4].
Take `CN(C)CC(=O)N1CCN(c2ncc3cc(-c4ccccc4)c(-c4ccc(CN5CCC(c6nnc(-c7ccccn7)[nH]6)CC5)cc4)nc3n2)CC1`: the IC50 came to 0.019 µM in experiment [1], 0.003 µM in experiment [2], 0.006 µM in experiment [3] and 0.006 µM in experiment [4].
`CS(=O)(=O)N1CCN(c2ncc3cc(-c4ccccc4)c(-c4ccc(CN5CCC(c6nnc(-c7ccccn7)[nH]6)CC5)cc4)nc3n2)CC1`: the IC50 in experiment [1] came to 0.196 µM; in experiment [2] it was 0.02 µM; in experiment [3], 0.007 µM; in experiment [4], 0.023 µM.
The like results for `CN1CC(N2CCN(c3ncc4cc(-c5ccccc5)c(-c5ccc(CN6CCC(c7nnc(-c8ccccn8)[nH]7)CC6)cc5)nc4n3)CC2)C1` were, in that order, 0.027 µM, 0.006 µM, 0.012 µM and 0.009 µM.
The like results for `CN1CCN(c2ncc3cc(-c4ccccc4)c(-c4ccc(CN5CCC(c6nnc(-c7ccccn7)[nH]6)CC5)cc4)nc3n2)CC1` were, in that order, 0.052 µM, 0.036 µM, 0.009 µM and 0.027 µM.
Turning to `O=S1(=O)CCN(c2ncc3cc(-c4ccccc4)c(-c4ccc(CN5CCC(c6nnc(-c7ccccn7)[nH]6)CC5)cc4)nc3n2)CC1`, the outcome in experiment [2] was inactive. Besides, the figures for the IC50 in experiment [3] and in experiment [4] were 0.038 µM and 0.297 µM, respectively.
With `c1ccc(-c2cc3cnc(N4CCCCC4)nc3nc2-c2ccc(CN3CCC(c4nnc(-c5ccccn5)[nH]4)CC3)cc2)cc1`, the IC50 was 0.229 µM in experiment [1], 0.036 µM in experiment [2], 0.018 µM in experiment [3] and 0.093 µM in experiment [4].
On to `C[C@@H]1CN(c2ncc3cc(-c4ccccc4)c(-c4ccc(CN5CCC(c6nnc(-c7ccccn7)[nH]6)CC5)cc4)nc3n2)CCN1`, for which the IC50 in experiment [1] is 0.044 µM; in experiment [2], 0.036 µM; in experiment [3], 0.008 µM; in experiment [4], 0.025 µM.
For the molecule `C[C@@H]1CN(c2ncc3cc(-c4ccccc4)c(-c4ccc(CN5CCC(c6nnc(-c7ccccn7)[nH]6)CC5)cc4)nc3n2)C[C@H](C)O1`, the IC50 in experiment [1] stood at 0.184 µM; in experiment [2] it was 0.042 µM; in experiment [3] it was 0.028 µM; in experiment [4], 0.102 µM.
With `c1ccc(-c2cc3cnc(-n4ccnc4)nc3nc2-c2ccc(CN3CCC(c4nnc(-c5ccccn5)[nH]4)CC3)cc2)cc1`, the IC50 in experiment [1] is 0.684 µM; in experiment [2], 0.035 µM; in experiment [3], 0.005 µM; in experiment [4], 0.073 µM.
The like results for `O[C@@H]1CN(c2ncc3cc(-c4ccccc4)c(-c4ccc(CN5CCC(c6nnc(-c7ccccn7)[nH]6)CC5)cc4)nc3n2)CCN1` were, in that order, 0.421 µM, 0.061 µM, 0.025 µM and 0.067 µM.
Take `CN(C)C(=O)N1CCN(c2ncc3cc(-c4ccccc4)c(-c4ccc(CN5CCC(c6nnc(-c7ccccn7)[nH]6)CC5)cc4)nc3n2)CC1`: the IC50 in experiment [1] amounted to 0.177 µM; in experiment [2], 0.013 µM; in experiment [3], 0.018 µM; in experiment [4] it was 0.04 µM.
Take `C[C@@H]1CN(c2ncc3cc(-c4ccccc4)c(-c4ccc(CN5CCC(c6nnc(-c7ccccn7)[nH]6)CC5)cc4)nc3n2)C[C@H](C)N1`: the IC50 is 0.101 µM in experiment [1], 0.046 µM in experiment [2], 0.045 µM in experiment [3] and 0.077 µM in experiment [4].
The matching figures for `c1ccc(-c2cc3cnc(N4CCOCC4)nc3nc2-c2ccc(CN3CCC(c4nnc(-c5ccccn5)[nH]4)CC3)cc2)cc1`: 0.243 µM, 0.019 µM, 0.005 µM and 0.043 µM.
For the molecule `CN(C)C1CCN(c2ncc3cc(-c4ccccc4)c(-c4ccc(CN5CCC(c6nnc(-c7ccccn7)[nH]6)CC5)cc4)nc3n2)CC1`, the IC50 was determined as 0.07 µM in experiment [1], 0.023 µM in experiment [2], 0.01 µM in experiment [3] and 0.022 µM in experiment [4].
As to `CSc1ncc2cc(-c3ccccc3)c(-c3ccc(CNCCC(=O)c4ccccc4N)cc3)nc2n1`, the IC50 in experiment [1] came out at 0.388 µM; in experiment [2], 0.078 µM.
Consider `FC1(F)CCN(c2ncc3cc(-c4ccccc4)c(-c4ccc(CN5CCC(c6nnc(-c7ccccn7)[nH]6)CC5)cc4)nc3n2)C1`, for which the IC50 in experiment [1] stood at 0.462 µM; in experiment [2] it was 0.075 µM; in experiment [3], 0.02 µM; in experiment [4], 0.252 µM.
As to `CN1CCN(c2cc3cc(-c4ccccc4)c(-c4ccc(CN5CCC(c6nnc(-c7ccccn7)[nH]6)CC5)cc4)nc3cn2)CC1`, the IC50 in experiment [1] is 0.133 µM; in experiment [2] it was 0.924 µM; in experiment [3] it was 0.74 µM; in experiment [4], 0.059 µM.
In the case of `C[C@@H]1CN[C@@H](C)CN1c1ncc2cc(-c3ccccc3)c(-c3ccc(CN4CCC(c5nnc(-c6ccccn6)[nH]5)CC4)cc3)nc2n1`, the IC50 in experiment [1] worked out at 0.199 µM; in experiment [2], 0.194 µM; in experiment [3], 0.043 µM; in experiment [4], 0.029 µM.
`OCCN1CCN(c2ncc3cc(-c4ccccc4)c(-c4ccc(CN5CCC(c6nnc(-c7ccccn7)[nH]6)CC5)cc4)nc3n2)CC1`: the IC50 in experiment [1] was 0.041 µM; in experiment [2], 0.017 µM; in experiment [3] it was 0.009 µM; in experiment [4], 0.031 µM.
The like results for `C[C@H]1CN(c2ncc3cc(-c4ccccc4)c(-c4ccc(CN5CCC(c6nnc(-c7ccccn7)[nH]6)CC5)cc4)nc3n2)CCN1` were, in that order, 0.125 µM, 0.075 µM, 0.017 µM and 0.047 µM.
As for `CN1CCN(c2nccc3cc(-c4ccccc4)c(-c4ccc(CN5CCC(c6nnc(-c7ccccn7)[nH]6)CC5)cc4)nc23)CC1`, the outcome in experiment [1] and in experiment [2] was inactive. In addition, the IC50 in experiment [3] came out at 0.72 µM; in experiment [4] it was 3.57 µM.
`c1ccc(-c2cc3cnc(N4CCn5cnnc5C4)nc3nc2-c2ccc(CN3CCC(c4nnc(-c5ccccn5)[nH]4)CC3)cc2)cc1`: the IC50 in experiment [1] worked out at 0.735 µM; in experiment [2] it was 0.125 µM; in experiment [3], 0.019 µM; in experiment [4], 0.138 µM.
For `CC(=O)N1CCN(c2ncc3cc(-c4ccccc4)c(-c4ccc(CN5CCC(c6nnc(-c7ccccn7)[nH]6)CC5)cc4)nc3n2)CC1`, the IC50 in experiment [1] worked out at 0.145 µM; in experiment [2] it was 0.015 µM; in experiment [3] it was 0.005 µM; in experiment [4], 0.016 µM.

Broadly, the IC50 is the midpoint of a concentration-inhibition curve. A lower IC50 goes with greater potency.
